Measured values published in US6825230B2, “Spiro and dispiro 1,2,4-trixolane antimalarials” (Medicines for Malaria Venture MMV, priority 2002, dated 2004).
In brackets after ≈: the same amount, converted by molar mass.

Experiments:
[1] = test system: chloroquine-resistant K1 strain of P. falciparum; assay: In vitro antimalarial semiautomated microdilution assay ([3H]-hypoxanthine incorporation), K1 strain; assay type: cell-based, Plasmodium falciparum; settings: Plasmodium falciparum; chloroquine-resistant K1 strain, 72 h incubation; read-out: IC50 (ng/ml) K1
Summary of the method: (§1)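 IC50 comes from Logit regression of [3H]-hypoxanthine incorporation data. Intraerythrocytic P. falciparum taken from asynchronous stock cultures is exposed to OZ compounds in a semiautomated microdilution format.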

[2] = test system: chloroquine-sensitive NF54 strain of P. falciparum; assay: In vitro antimalarial semiautomated microdilution assay ([3H]-hypoxanthine incorporation), NF54 strain; assay type: cell-based, Plasmodium falciparum; settings: Plasmodium falciparum; chloroquine-sensitive NF54 strain, 72 h incubation; read-out: IC50 (ng/ml) NF54
Summary of the method: as §1

[3] = test system: ANKA strain of P. berghei; assay: Single dose STI in vivo screen in infected mice; parameters: species or system Plasmodium berghei; settings: 10 mg/kg
[4] = test system: Schistosoma mansoni adult worms (49-day-old); assay: Effect on adult schistosomes (49-day-old) in infected mice; assay type: in vivo
Procedure: Mice were infected with 100 Schistosoma mansoni cercariae on day 49 post-treatment. Each group was treated per os with OZ compounds at single doses of 200, 400, and 600 mg/kg. Untreated mice served as the control. All groups were killed 4 weeks after treatment and the liver and intestine were removed and separated. The liver and intestine were compressed and alive male and female worms could be seen and counted.

[5] = test system: ANKA strain of Plasmodium berghei; assay: Single dose ED50/ED90/ED99 determination in infected mice; assay type: in vivo
Summary of the method: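 Moro SPF or NMRI mice (three per group) infected with P. berghei ANKA were dosed once on day 1 post-infection in SSV (0.5% CMC, 0.5% benzyl alcohol, 0.4% Tween 80, 0.9% NaCl). Parasitemia reduction was scored on day 3; ED values (mg/kg) came from nonlinear fitting.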

[6] = Pharmacokinetics in rats (IV and oral dosing); settings: rat, in vivo
Excerpt: (§2) Artesunate is listed as a reference compound.

[7] = Pharmacokinetics in dogs (IV and oral dosing); settings: in vivo, dog; for bioavailability: some values marked (V), not defined
Excerpt: as §2

P. berghei ANKA strain [8] = assay: Divided 3x10 mg/kg vs single 1x30 mg/kg po dose in infected mice; assay type: in vivo, Plasmodium berghei
P. berghei ANKA strain [9] = assay: Divided 3x3 mg/kg and 3x1 mg/kg po doses in infected mice; assay type: in vivo, Plasmodium berghei
Summary of the method: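 Male NMRI mice were infected i.v. with 2×10^7 P. berghei-parasitized erythrocytes on day 0, then dosed orally in SSV vehicle on days 1, 2 and 3 post-infection.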

P. berghei ANKA strain [10] = assay: Prophylactic activity, single 100 mg/kg po at various times before infection; assay type: in vivo, Plasmodium berghei

NC[C@H]1CC[C@]2(CC1)OOC1(O2)C2CC3CC(C2)CC1C3 (stereo partly drawn) [OZ209]
IC50 [1]: 0.21 ng/mL (≈ 0.716 nM) | IC50 [2]: 0.32 ng/mL (≈ 1.09 nM) | Survival (days) 10 mg/kg po ([3]; single 10 mg/kg po in 3% ethanol and 7% Tween 80, untreated 6-7 days): 9.5 days | Activity (%) 10 mg/kg po ([3]; single 10 mg/kg po in 3% ethanol and 7% Tween 80 on day 1 post-infection, percent reduction in parasitemia on day 3): 99.94% | Survival (days) 10 mg/kg SSV po ([3]; single 10 mg/kg po in SSV, untreated 6-7 days): 10.0 days | Activity (%) 10 mg/kg SSV po ([3]; single 10 mg/kg po in standard suspending vehicle (SSV) on day 1 post-infection, percent reduction in parasitemia on day 3): 99.96% | Survival (days) 10 mg/kg sc ([3]; single 10 mg/kg sc in 3% ethanol and 7% Tween 80, untreated 6-7 days): 12.5 days | Activity (%) 10 mg/kg sc ([3]; single 10 mg/kg sc in 3% ethanol and 7% Tween 80 on day 1 post-infection, percent reduction in parasitemia on day 3): 99.97% | % reduction of adult worms growth at day 49 after per os application of 200 mg/kg, TWR (%) ([4]; single 200 mg/kg per os, 49-day-old adults, total worm reduction rate): 39% | Adult worms day 49, per os 200 mg/kg, DEAD WORM (%) ([4]; single 200 mg/kg per os, percentage of dead worm in the liver): 34% | % reduction of adult worms growth at day 49 after per os application of 400 mg/kg, TWR (%) ([4]; single 400 mg/kg per os, 49-day-old adults, total worm reduction rate): 16% | Adult worms day 49, per os 400 mg/kg, DEAD WORM (%) ([4]; single 400 mg/kg per os, percentage of dead worm in the liver): 28% | % reduction of adult worms growth at day 49 after per os application of 600 mg/kg, TWR (%) ([4]; single 600 mg/kg per os, 49-day-old adults, total worm reduction rate): 41/ % | Adult worms day 49, per os 600 mg/kg, DEAD WORM (%) ([4]; single 600 mg/kg per os, percentage of dead worm in the liver): 21++ % | ED50 ([5]; Plasmodium berghei, single dose po in SSV on day 1 post-infection, parasitemia day 3, nonlinear fitting, read-out: ED50): 0.55 mg/kg | ED90 ([5]; po): 1.4 mg/kg | ED99 ([5]; single dose po in SSV on day 1 post-infection, parasitemia day 3, nonlinear fitting): 3.0 mg/kg | half-life ([6]; iv, 10 mg/kg): 2.5 h | bioavailability ([6]; po, 10 mg/kg): 12.4% | bioavailability ([6]; po, 25 mg/kg): 22.4% | half-life ([6]; po, 25 mg/kg): 1.69 h | half-life ([7]; IV 10 mg/kg): 3.05 h | half-life ([7]; oral 10 mg/kg): 2.12 h | bioavailability ([7]; oral 10 mg/kg, read-out: Dog Oral Bioavailability 10 mg/kg): 24.5% | bioavailability ([7]; oral 25 mg/kg, read-out: Dog Oral Bioavailability 25 mg/kg): 15.9% | Survival (days) 3 × 10 mg/kg p.o. SSV (P. berghei ANKA strain [8]; 10 mg/kg po on days 1, 2, 3 post-infection): >30 days | Activity (%) 3 × 10 mg/kg p.o. SSV (P. berghei ANKA strain [8]; po, 10 mg/kg, 96 h): 100% | Cures 3 × 10 mg/kg p.o. SSV (P. berghei ANKA strain [8]; po, 10 mg/kg, 720 h): 3\3 | Activity (%) 1 × 30 mg/kg p.o. SSV (P. berghei ANKA strain [8]; po, 30 mg/kg): 100% | Cures 1 × 30 mg/kg p.o. SSV (P. berghei ANKA strain [8]; po, 30 mg/kg, 720 h): 0/5 | Survival (days) 1 × 30 mg/kg p.o. SSV (P. berghei ANKA strain [8]; single 30 mg/kg po on day 1 post-infection): >30 days | Activity at the 3×3 mg/kg dose (P. berghei ANKA strain [9]; 3 mg/kg po (SSV) on days 1, 2, 3 post-infection, parasitemia reduction on day 4): 100% | Survival (P. berghei ANKA strain [9]; 3 × 1 mg/kg p.o. SSV on days 1, 2, 3 post-infection): 9.4 days | Survival (P. berghei ANKA strain [9]; 3 × 3 mg/kg p.o. SSV on days 1, 2, 3 post-infection): 16.4 days | Activity (%) (P. berghei ANKA strain [9]; 3 × 3 mg/kg p.o. SSV on days 1, 2, 3 post-infection, percent reduction of parasitemia vs control on day 4): 100% | Activity (%) (P. berghei ANKA strain [9]; po, 1 mg/kg, 96 h): 99.51% | Cures (P. berghei ANKA strain [9]; po, 3 mg/kg, 720 h): 0\5 | Prophylactic Activity (%) 72 h (P. berghei ANKA strain [10]; po, 100 mg/kg): 99.92% | Duration of prophylactic protection (P. berghei ANKA strain [10]; single 100 mg/kg po): 3 days | Prophylactic Activity (%) 24 h (P. berghei ANKA strain [10]; single 100 mg/kg po 24 h before infection, parasitemia reduction on day 3 post-infection): 100% | Prophylactic Activity (%) 48 h (P. berghei ANKA strain [10]; single 100 mg/kg po 48 h before infection, parasitemia reduction on day 3 post-infection): 99.9% | Prophylactic Activity (%) 0 h (P. berghei ANKA strain [10]; single 100 mg/kg po at 0 h, parasitemia reduction on day 3 post-infection): 100%
